Where a name gives a salt, the structure may show the parent alone. Read-outs that look alike come from different tables or passages of the source.
How the values were obtained:
[1] = target: mouse TAAR1 (Mus musculus (Mouse), UniProt Q923Y8); assay: Radioligand binding assay on mouse TAAR1; details: read-out: Ki (μM) mouse
In short: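 Membranes were from HEK293 cells stably expressing mouse TAAR1. Compounds from 10 pM to 10 μM, in duplicate, competed with [3H]-(S)-4-[(ethyl-phenyl-amino)-methyl]-4,5-dihydro-oxazol-2-ylamine for 1 h at 4 °C. Nonspecific binding was defined with 10 μM unlabelled ligand, and bound radioactivity was read by filtration and scintillation.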

[2] = target: rat TAAR1 (Rattus norvegicus (Rat), UniProt Q923Y9); assay: Radioligand binding assay on rat TAAR1; details: read-out: Ki (μM) rat
Chain of rat TAAR1 (Q923Y9 whole entry): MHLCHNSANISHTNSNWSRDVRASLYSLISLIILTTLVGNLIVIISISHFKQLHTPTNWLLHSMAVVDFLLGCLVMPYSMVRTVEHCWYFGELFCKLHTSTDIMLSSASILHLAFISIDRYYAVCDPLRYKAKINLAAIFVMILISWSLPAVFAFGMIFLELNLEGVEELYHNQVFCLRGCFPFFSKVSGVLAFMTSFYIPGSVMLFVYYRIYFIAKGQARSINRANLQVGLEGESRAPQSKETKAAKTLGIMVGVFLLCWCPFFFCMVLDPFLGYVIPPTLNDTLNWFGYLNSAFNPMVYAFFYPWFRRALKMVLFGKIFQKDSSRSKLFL
In short: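 Membranes from HEK293 cells stably expressing rat TAAR1, with Kd checked per batch by saturation. Competition with ³H-(S)-4-[(ethyl-phenyl-amino)-methyl]-4,5-dihydro-oxazol-2-ylamine, compounds 10 pM–10 μM in duplicate, 1 hr at 4 °C. Filtration then scintillation counting; nonspecific binding defined with 10 μM unlabeled ligand.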

[3] = mouse TAAR1, HEK-293 membranes, first value of cell mouse/rat
[4] = rat TAAR1, HEK-293 membranes, second value of cell mouse/rat

Chain of mouse TAAR1 (Q923Y8 whole entry): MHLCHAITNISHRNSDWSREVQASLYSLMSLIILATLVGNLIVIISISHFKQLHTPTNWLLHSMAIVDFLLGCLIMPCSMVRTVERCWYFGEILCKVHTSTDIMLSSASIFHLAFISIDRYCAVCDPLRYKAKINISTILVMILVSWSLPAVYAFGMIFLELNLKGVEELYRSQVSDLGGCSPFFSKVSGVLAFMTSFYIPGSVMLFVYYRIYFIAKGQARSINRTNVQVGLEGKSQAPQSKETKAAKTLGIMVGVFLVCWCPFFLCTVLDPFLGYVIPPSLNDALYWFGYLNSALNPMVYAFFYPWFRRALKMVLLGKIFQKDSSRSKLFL

Compound | Ki [1, 3] | Ki [2, 4] | Ki [1] | Ki [2]
O=C(Nc1ccc(C2CCNC2)cc1)c1nccc2ccsc12 (racemic) [Example 93, (RS)-Thieno[2,3-c]pyridine-7-carboxylic acid (4-pyrrolidin-3-yl-phenyl)-amide hydrochloride] | 0.04 µM | 0.173 µM | – | –
O=C(Nc1ccc(CCC2CCCNC2)cc1)c1ncc(F)cc1F (racemic) [Example 135, (RS)-3,5-Difluoro-pyridine-2-carboxylic acid [4-(2-piperidin-3-yl-ethyl)-phenyl]-amide hydrochloride] | 1.27 µM | 0.0134 µM | – | –
O=C(Nc1ccc(C2CNCCO2)cc1)c1ccc(OCC(F)(F)F)nc1 (racemic) [Example 222, (RS)—N-(4-(Morpholin-2-yl)phenyl)-6-(2,2,2-trifluoroethoxy)nicotinamide hydrochloride] | – | – | 0.0037 µM | 0.0033 µM
O=C(Nc1ccc(CCC2CCNC2)cc1)c1ccc(Cl)cc1 (racemic) [Example 109, (RS)-4-Chloro-N-[4-(2-pyrrolidin-3-yl-ethyl)-phenyl]-benzamide hydrochloride] | 0.0017 µM | 0.0176 µM | – | –
CC(C(=O)Nc1ccc(C2CCNC2)cc1)c1cccc(C(F)(F)F)c1 (racemic) [Example 61, (RS)—N—((RS)-4-Pyrrolidin-3-yl-phenyl)-2-(3-trifluoromethyl-phenyl)-propionamide] | 0.0172 µM | 0.0033 µM | – | –
O=C(Nc1ccc(C2CCCNC2)cc1)c1cnc(Cl)cn1 (racemic) [Example 160, (RS)-5-Chloro-pyrazine-2-carboxylic acid (4-piperidin-3-yl-phenyl)-amide hydrochloride] | 0.0851 µM | 0.0046 µM | – | –
O=C(Nc1ccc([C@@H]2CNCCO2)cc1)c1cccc(Cl)c1 [Example 262, (R)-3-Chloro-N-(4-(morpholin-2-yl)phenyl)benzamide hydrochloride] | – | – | 0.0052 µM | 0.0013 µM
O=C(Nc1ccc([C@@H]2CNCCO2)cc1)c1ccc(Cl)nc1 [Example 207, (R)-6-Chloro-N-(4-(morpholin-2-yl)phenyl)nicotinamide hydrochloride] | 0.0525 µM | – | – | 0.0042 µM
Cc1cc(C(=O)Nc2ccc([C@H]3CNCCO3)cc2)cc(Cl)n1 [Example 286, (S)-2-Chloro-6-methyl-N-(4-(morpholin-2-yl)phenyl)isonicotinamide hydrochloride] | – | 0.0044 µM | 0.0222 µM | –
COc1ccc(C(=O)Nc2ccc(C3CCCNC3)cc2)cc1 (racemic) [Example 186, (RS)-4-Methoxy-N-(4-(piperidin-3-yl)phenyl)benzamide hydrochloride] | 0.0486 µM | 0.0027 µM | – | –
O=C(Nc1ccc(CCC2CCNC2)cc1)c1ccc(Cl)cn1 (racemic) [Example 117, (RS)-5-Chloro-pyridine-2-carboxylic acid [4-(2-pyrrolidin-3-yl-ethyl)-phenyl]-amide hydrochloride] | 0.0531 µM | 0.0029 µM | – | –
C[C@@H]1CNC[C@H](c2ccc(NC(=O)c3ccc(Cl)nc3)cc2)O1 [Example 310, 6-Chloro-N-(4-((2S,6R)-6-methylmorpholin-2-yl)phenyl)nicotinamide hydrochloride] | – | 0.0108 µM | 0.0476 µM | –
Cc1ccc(C(=O)Nc2ccc(C3CCCNC3)cc2)cc1 (racemic) [Example 185, (RS)-4-Methyl-N-(4-(piperidin-3-yl)phenyl)benzamide hydrochloride] | 0.0333 µM | 0.0026 µM | – | –
O=C(Nc1ccc(Cl)cc1)Nc1ccc(CCC2CCCNC2)cc1 (racemic) [Example 119, (RS)-1-(4-Chloro-phenyl)-3-[4-(2-piperidin-3-yl-ethyl)-phenyl]-urea hydrochloride] | 0.0365 µM | 0.0018 µM | – | –
O=C(Nc1ccc([C@@H]2CCCNC2)cc1)c1ccc(C(F)(F)F)nc1 [Example 242, (S)—N-(4-(Piperidin-3-yl)phenyl)-6-(trifluoromethyl)nicotinamide hydrochloride] | – | – | 0.037 µM | 0.0089 µM

From patent US9452980B2, “Substituted benzamides” (Hoffmann-La Roche Inc., priority 2009, dated 2016)
